Measured values as given in patent US8658787B2, “Galacto-rhamnogalacturonate compositions for the treatment of non-alcoholic steatohepatitis and non-alcoholic fatty liver disease” (Galectin Therapeutics Inc., priority 2011, dated 2014).

Test system: STAM mice
Assay: STAM mouse model of steatohepatitis (diabetes induced, high fat diet), treatment with GR-MD-02
Type: in vivo
Protocol: The experimental model used in this example is the mouse in which diabetes was induced and a high fat diet was administered, a model that has been called STAM mice. […] This is a proven model in which the mice consistently develop NASH with hepatocyte fat accumulation, evidence of hepatocyte toxicity, portal and lobular inflammatory infiltrates, peri-sinusoidal fibrosis, advanced fibrosis with nodule formation, cirrhosis, and ultimately hepatocellular carcinoma in a certain percentage of animals.
The progression of disease appearance is fatty liver (FL) by five weeks of age, steatohepatitis (NASH) by 7 weeks of age, fibrosis (Fib) by 9 weeks of age, nodule formation (N) by 13 weeks of age, and some animals developing hepatocellular carcinoma (HC) by 16 weeks of age (FIG. 1).
GR-MD-02, produced as described in Example 1, was given in a dose of 60 mg/kg twice weekly intravenously for four (4) weeks at the each of the starting times indicated. Early treatment was given for weeks 6 through 9 and late therapy was given for weeks 9 through 12.
The NFLD activity score was used to evaluate the severity of liver disease on histological sections of liver and gives points for three aspects of NASH pathology including, steatosis (0 (<5%), 1 (5-33%), 2 (33-66%), or 3 (>66%)), hepatocyte ballooning (0 (none), 1, (few), or […]), and lobular inflammation (0 (no foci), 1 (<2 foci/200× field), 2 (2-4 foci/200× field), or 3 (>4 foci/200× field)). The total number of points is the NFLD activity score.

## galacto-rhamnogalacturonate [GR-MD-02]
60 mg/kg twice weekly i.v., early or late treatment schedule, vs vehicle control
  whole blood glucose: no statistical differences
60 mg/kg twice weekly intravenously, early (weeks 6-9) and late (weeks 9-12) treatment, vs vehicle (normal saline)
  changes in body weight: no difference in body weight
Early (6-9 weeks) and late (9-12 weeks) treatment groups, vs vehicle control
  Sirius red staining of liver histology: marked reduction in Sirius red staining
Early and late treatment groups and both combined, vs vehicle
  collagen percent area (Sirius red, computer assisted morphometric analysis): markedly statistically significantly reduced
Early treatment group (weeks 6-9), 60 mg/kg twice weekly i.v., vehicle average 5, p<0.01 vs vehicle
  NFLD activity score on liver histology (average): 3
Marker for activated stellate cells, vs vehicle
  alpha-Smooth Muscle Actin in liver tissue (immunohistochemical staining, digital morphometry): marked reduction in alpha-Smooth Muscle Actin
Vs vehicle treated animals
  galectin-3 in liver tissue (immunohistochemical staining, digital morphometry): marked reduction of galectin-3
